Results reported in patent US20240255515A1, “G4-SPECIFIC PEPTIDES AND METHODS OF IDENTIFYING THE SAME” (CITY UNIVERSITY OF HONG KONG, priority 2023, published 2024).
Read-outs that look alike come from different tables or passages of the source.

Legend:
hTERC rG4 [1] = assay: Ligand-enhanced fluorescence assay; design: species or system human; details: 100 nM hTERC rG4
Description: HTERC rG4 (100 nM) in Tris-HCl buffer (25 mM Tris-HCl, pH 7.5, 150 mM KCl, and 1 mM MgCl2) was heated at 95° C. for 3 minutes and cooled down at 25° C. for 10 minutes. 10 μL of the peptide and rG4 mixture were incubated for 30 minutes at room temperature. Fluorescence spectroscopy was performed using a microplate reader in 384 well plate. The samples were excited at 394 nm and the emission spectra were detected at 610 nm. The plot was carried out by software.

[2] = tested on: hTERC rG4 WT construct in HeLa cells; assay: Dual-luciferase reporter gene assay, hTERC rG4 WT construct; assay type: cell-based, human; details: peptide 0, 100, 200 nM, 48 hours
Description: (§1) Wild-type or mutant hTERC rG4 construct was inserted into the HSV-TK promoter at the SacII restriction enzyme site of firefly/renilla dual luciferase reporter vector, psiCHECK-2. Then, wild-type or mutant reporter plasmid was transfected into Hela cells together with peptides (0, 100, 200 nM) using nucleofector. Each well of the 96-well black-wall optical plate was transfected with 30 ng plasmids. The luciferase reporter gene assays were performed after 48 hours of incubation using the dual-luciferase reporter assay kit. The microplate reader was used to measure luciferase activities with renilla luciferase serving as an internal control. The ratio of firefly to renilla was calculated to analyze the data. Three replicates were performed for each measurement, and the error bar was plotted based on the standard deviation. The P-value was calculated using two-tailed unpaired Student's t-tests to evaluate the significance of the samples.
After confirming that the rG4-targeting peptides can interact with rG4 structures in live cells, their effect on modulating rG4-mediated gene expression was examined in the example. Dual luciferase reporter gene assay was conducted in HeLa cells, in which hTERC rG4 WT motif (SEQ ID NO: 12) or hTERC rG4 MUT motif (SEQ ID NO: 13) was inserted in the 5′ untranslated region (5′ UTR) of the renilla luciferase gene region separately, and the firefly luciferase gene was used as a normalized gene (FIG. 1).

hTERC rG4 [3] = assay: Microscale thermophoresis (MST) binding assay; design: species or system human; details: 50 nM FAM-labelled RNA, 150 mM KCl
Description: (§2) The RNA was subjected to heat treatment at 75° C. for 5 minutes followed by cooling down to room temperature for 10 minutes for renaturation purposes. For binding affinity and selectivity test, reaction mixtures containing 50 nM FAM-labelled RNA, 150 mM KCl, 1 mM MgCl2, 25 mM Tris-HCl (pH 7.5) and varying concentrations of peptide were prepared and incubated at 37° C. for 30 minutes. The samples were then loaded into MST capillary tubes, and the measurements were taken at 25° C. using blue light mode and the binding affinity mode. The data obtained from these measurements were analyzed using MST nano temper analysis (nta) analysis software. The curve fitting and dissociation constant (Kd) determination were carried out by software using the one site-specific binding model.

[4] = tested on: rG4s, dG4s (c-MYC, c-kit1, HRAS-1, hTelo) and non-G4 targets (scramble G-rich sequence, DNA hairpin, RNA hairpin); assay: MST binding selectivity test with different rG4s, dG4s and non-G4 targets; details: data not shown
Description: as §2

[5] = tested on: 5' FAM, 3' TAMRA labelled hTERC rG4; assay: FRET melting assay; assay type: binding, human; details: increasing peptide concentration, 0-2 μM; 0.2 μM rG4
Description: FRET-melting assay was performed with 5′ FAM, 3′ TAMRA labelled hTERC rG4. The oligonucleotides were prepared at 0.2 μM, and the peptides were prepared at 0, 0.2, 0.4, 1 or 2 μM final concentration. The samples were excited at 492 nm and the emission spectra were detected at 516 nm in a buffer containing 10 mM lithium cacodylate and 1 mM KCl. The rG4 was heated at 95° C. for 5 minutes and cooled down in room temperature to refold for 10 minutes before adding the peptides. The signal was monitored by real-time PCR detection system with a procedure of 30 minutes at 25° C., then an increase of 0.5° C. every minute until 95° C. Each experimental condition was tested in three duplicates in a volume of 25 μL for each sample. The data were blanked, averaged and smoothed over 2° C. The plot was carried out by software.

[6] = tested on: hTERC rG4 MUT construct in HeLa cells; assay: Dual-luciferase reporter gene assay, hTERC rG4 MUT construct; assay type: cell-based, human; details: peptide 0, 100, 200 nM, 48 hours
Description: as §1
After confirming that the rG4-targeting peptides can interact with rG4 structures in live cells, their effect on modulating rG4-mediated gene expression was examined in the example. […]

hTERC rG4 wild-type (WT) = assay: Filter binding assay, hTERC rG4 wild-type; design: species or system human; details: data not shown
Description: (§3) In the binding affinity and selectivity tests, reaction mixtures containing 5 nM biotin-labeled RNA, 25 mM Tris-HCl (pH 7.5), 150 mM KCl, 1 mM MgCl2 and varying concentrations of peptides were prepared in 50 μL and incubated at 37° C. for 30 minutes before loaded onto an apparatus containing a nitrocellulose membrane (top) and nylon membrane (bottom). The nylon membrane was rinsed with 0.5× Tris-borate-EDTA (TBE) buffer for 5 minutes, and the nitrocellulose membrane was rinsed with 0.5 M KOH for 15 minutes at 4° C. and then rinsed with 0.5×TBE buffer for one time prior to use. The membranes were washed with binding buffer for three times before and after applying the sample to the apparatus. The crosslinking step was carried out by exposing the membranes to UV irradiation at 254 nm, 120,000 microjoules/cm^2 for 5 minutes. The results were detected using a chemiluminescent nucleic acid detection module kit, and the scanned by an imaging system.

hTERC rG4 mutant (MUT) = assay: Filter binding assay, hTERC rG4 mutant; design: species or system human; details: data not shown
Description: as §3

[7] = tested on: hTERC rG4 WT in HeLa cells; assay: Cell imaging, co-transfection with hTERC rG4 WT; assay type: cell-based, human; details: 5 hours post-transfection, data not shown
Description: (§4) HeLa cells were seeded on a 3.5 cm confocal dish 1 day before transfection. FAM-labelled hTERC rG4 was heated to 75° C. for 5 minutes, annealed at 25° C., and then co-transfected with TAMRA-labelled peptide using LIPOFECTAMINE® 2000. Five hours post-transfection, the cells were stained with 50 nM deep red-fluorescent dye (labeling and tracking acidic organelles in live cells) for 30 minutes and 5 μg/mL Hoechst dye (staining nucleic acid) for 15 minutes. The images were monitored using a laser confocal scanning microscope. Fluorescence statistics of cells were analyzed using software.

[8] = tested on: hTERC rG4 MUT in HeLa cells; assay: Cell imaging, co-transfection with hTERC rG4 MUT; assay type: cell-based, human; details: 5 hours post-transfection, data not shown
Description: as §4

Substance: RHAU53: positive control peptide reported to interact with rG4s; sequence SMHPGHLKGREIGMWYAKKQGQKNKEAERQERAVVHMDERREEQIVQLLNSVQA K (SEQ ID NO: 4) (SMHPGHLKGREIGMWYAKKQGQKNKEAERQERAVVHMDERREEQIVQLLNSVQAK)
- fluorescence signal / conformational change of G4 upon peptide binding (hTERC rG4 [1]): exhibited a similar result
- normalized luciferase activity, WT construct [2]: effects of both tandem and cyclic pep11 were comparable to that of RHAU53

Substance: de novo G4-binding peptide with amino acid sequence TKRKHPHRRKYR (SEQ ID NO: 1) [pep11]
- Kd (hTERC rG4 [3]; read-out: Kd, binding to hTERC rG4): 1370 ± 220 nM
- binding selectivity among rG4s, dG4s and non-G4s [4]: only rG4s exhibited observable binding
- melting temperature of hTERC rG4 [5]: Higher melting temperatures

Substance: pep71: negative control peptide with amino acid sequence AHPLTKPPKYHH (SEQ ID NO: 5) [reference compound]
- normalized luciferase activity, WT construct [2]: did not impact
- normalized luciferase activity, MUT construct [6]: did not impact

Substance: two pep11 domains linked by (GTGSGA)3: TKRKHPHRRKYRGTGSGAGTGSGAGTGSGATKRKHPHRRKYR (SEQ ID NO: 3) [tandem pep11]
- Kd (hTERC rG4 [3]; read-out: Kd, binding affinity to hTERC rG4): 449 ± 62 nM
- binding selectivity among rG4s, dG4s and non-G4s [4]: bound to other rG4s but not to non-G4s and weakly to dG4s
- binding to hTERC rG4 WT (hTERC rG4 wild-type (WT)): bound to hTERC rG4 WT
- binding to hTERC rG4 MUT (hTERC rG4 mutant (MUT)): not MUT
- melting temperature of hTERC rG4 [5]: Higher melting temperatures
- colocalization of TAMRA-labelled peptide with hTERC rG4 WT foci in live cells [7]: clear colocalization of TAMRA signals with the fluorescent foci
- foci in cells transfected with hTERC rG4 MUT [8]: few foci were observed
- normalized luciferase activity, WT construct [2]: the inhibition extended with increasing concentration
